We go through five compounds from patent publication US20090227673A1, “Method and Composition for the Treatment of Parkinson's Disease” (priority 2006, published 2009).

Read-outs that look alike come from different tables or passages of the source.

This test addresses T1, human COMT (Homo sapiens, UniProt P21964).
T1 construct: from tissue; host or cells: human liver cytosol (preparations HL4C, HL9C, HL8C)
T1 sequence (P21964 1-221 isoform P21964-2): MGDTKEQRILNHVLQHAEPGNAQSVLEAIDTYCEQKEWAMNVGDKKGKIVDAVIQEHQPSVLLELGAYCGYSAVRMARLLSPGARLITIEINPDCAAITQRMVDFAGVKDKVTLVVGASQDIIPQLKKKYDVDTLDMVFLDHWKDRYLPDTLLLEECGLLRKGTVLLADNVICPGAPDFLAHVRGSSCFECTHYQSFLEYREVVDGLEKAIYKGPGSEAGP
As to the kind of experiment: Inhibition of human liver COMT-mediated o-methylation of catecholamines (human liver cytosol, [3H-methyl]AdoMet). In kind it is biochemical.

The mark [1] stands for this setting: 10 μM catecholamine substrate, 250 μM AdoMet, 0.25 mg/mL human liver cytosolic protein, 37° C., 10 min, pH 7.4.

In general, IC50 refers to the concentration that gives 50% inhibition.

Consider `Oc1cc(O)c2c(c1)O[C@H](c1ccc(O)c(O)c1)[C@H](O)C2` [epicatechin], for which the IC50 under setting [1] lay in the range of 0.5 to 1 µM.

In turn, `O=C(O)/C=C/c1ccc(O)c(O)c1` [caffeic acid] displayed an IC50 under setting [1] of 0.5 to 1 µM.

Consider `O=c1c(O)c(-c2ccc(O)c(O)c2)oc2cc(O)cc(O)c12` [quercetin], for which the IC50 under setting [1] was ~0.331 µM.

On to `O=C(/C=C/c1ccc(O)c(O)c1)OCCc1ccccc1` [caffeic acid pheethyl ester, caffeic acid phenethyl ester], for which the IC50 is 0.5 to 1 µM.

For `O=C(/C=C/c1ccc(O)c(O)c1)O[C@@H]1C[C@](O)(C(=O)O)C[C@@H](O)[C@H]1O` [chlorogenic acid], the IC50 under setting [1] fell in the range of 0.5 to 1 µM.
